# Measurements as given in PubChem BioAssay (NCI).
#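 48-hour exposure; five concentrations; linearly interpolated endpoints. TGI marks complete inhibition of growth.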
# Assays:
# Assay in all cases: inhibition of tumour cell growth, NCI panel, 48 h
# HOP-92 NSCLC = system: HOP-92 NSCLC
# SW-620 colon = system: SW-620 colon
# M14 melanoma = system: M14 melanoma
# RPMI-8226 leukemia = system: RPMI-8226 leukemia
# HCT-116 colon = system: HCT-116 colon
# NCI-H23 lung = system: NCI-H23 lung
# HS 578T breast = system: HS 578T breast
# SK-MEL-28 melanoma = system: SK-MEL-28 melanoma
# SK-OV-3 ovarian = system: SK-OV-3 ovarian
# A498 renal = system: A498 renal
# OVCAR-8 ovarian = system: OVCAR-8 ovarian
# SR leukemia = system: SR leukemia
# SF-295 CNS = system: SF-295 CNS
# EKVX NSCLC = system: EKVX NSCLC
# MALME-3M melanoma = system: MALME-3M melanoma
# SN12C renal = system: SN12C renal
# UACC-257 melanoma = system: UACC-257 melanoma
# HL-60(TB) leukemia = system: HL-60(TB) leukemia
# NCI/ADR-RES ovarian = system: NCI/ADR-RES ovarian
# UACC-62 melanoma = system: UACC-62 melanoma
# OVCAR-3 ovarian = system: OVCAR-3 ovarian
# NCI-H460 lung = system: NCI-H460 lung
# 786-0 renal = system: 786-0 renal
# SNB-75 CNS = system: SNB-75 CNS
# NCI-H522 lung = system: NCI-H522 lung
# PC-3 prostate = system: PC-3 prostate
# MCF7 breast = system: MCF7 breast
# T-47D breast = system: T-47D breast
# A549 NSCLC = system: A549 NSCLC
# SK-MEL-5 melanoma = system: SK-MEL-5 melanoma
# MOLT-4 leukemia = system: MOLT-4 leukemia
# HCT-15 colon = system: HCT-15 colon
# U251 CNS = system: U251 CNS
# OVCAR-4 ovarian = system: OVCAR-4 ovarian
# RXF 393 renal = system: RXF 393 renal
# TK-10 renal = system: TK-10 renal
# SNB-19 CNS = system: SNB-19 CNS
# HT29 colon = system: HT29 colon
# SF-539 CNS = system: SF-539 CNS
# COLO 205 colon = system: COLO 205 colon
# DU-145 prostate = system: DU-145 prostate
# HCC-2998 colon = system: HCC-2998 colon
# ACHN renal = system: ACHN renal
# BT-549 breast = system: BT-549 breast
# SK-MEL-2 melanoma = system: SK-MEL-2 melanoma
# UO-31 renal = system: UO-31 renal
# MDA-N = system: MDA-N
# SF-268 CNS = system: SF-268 CNS
# MDA-MB-435 = system: MDA-MB-435
# KM12 colon = system: KM12 colon
# CAKI-1 renal = system: CAKI-1 renal
# HOP-62 NSCLC = system: HOP-62 NSCLC
# K-562 leukemia = system: K-562 leukemia
# MDA-MB-231 breast = system: MDA-MB-231 breast
# CCRF-CEM leukemia = system: CCRF-CEM leukemia
# OVCAR-5 ovarian = system: OVCAR-5 ovarian
# NCI-H226 lung = system: NCI-H226 lung
# LOX IMVI melanoma = system: LOX IMVI melanoma
# IGROV1 ovarian = system: IGROV1 ovarian
smiles,measurement,setting,value
Cc1cc(C)c(C[C@H]2COC(=O)[C@]2(O)Cc2c(C)cc(C)cc2C)c(C)c1,TGI,HOP-92 NSCLC,29.7 µM
same,TGI,SW-620 colon,53.8 µM
same,TGI,M14 melanoma,36.3 µM
same,TGI,RPMI-8226 leukemia,77.7 µM
same,TGI,HCT-116 colon,43 µM
same,TGI,NCI-H23 lung,47.2 µM
same,TGI,HS 578T breast,38.5 µM
same,TGI,SK-MEL-28 melanoma,76.5 µM
same,TGI,SK-OV-3 ovarian,34.2 µM
same,TGI,A498 renal,30.9 µM
same,TGI,OVCAR-8 ovarian,45.2 µM
same,TGI,SR leukemia,> 100 µM
same,TGI,SF-295 CNS,34.1 µM
same,TGI,EKVX NSCLC,28.2 µM
same,TGI,MALME-3M melanoma,29.9 µM
same,TGI,SN12C renal,36.8 µM
same,TGI,UACC-257 melanoma,34.6 µM
same,TGI,HL-60(TB) leukemia,42.4 µM
same,TGI,NCI/ADR-RES ovarian,39.1 µM
same,TGI,UACC-62 melanoma,28.5 µM
same,TGI,OVCAR-3 ovarian,31.3 µM
same,TGI,NCI-H460 lung,33.3 µM
same,TGI,786-0 renal,38.5 µM
same,TGI,SNB-75 CNS,43.6 µM
same,TGI,NCI-H522 lung,34.4 µM
same,TGI,PC-3 prostate,32.1 µM
same,TGI,MCF7 breast,34 µM
same,TGI,T-47D breast,25.2 µM
same,TGI,A549 NSCLC,34 µM
same,TGI,SK-MEL-5 melanoma,39.6 µM
same,TGI,MOLT-4 leukemia,> 100 µM
same,TGI,HCT-15 colon,36.2 µM
same,TGI,U251 CNS,38.4 µM
same,TGI,OVCAR-4 ovarian,28.3 µM
same,TGI,RXF 393 renal,25.4 µM
same,TGI,TK-10 renal,37.6 µM
same,TGI,SNB-19 CNS,39.4 µM
same,TGI,HT29 colon,> 100 µM
same,TGI,SF-539 CNS,74.4 µM
same,TGI,COLO 205 colon,40.3 µM
same,TGI,DU-145 prostate,31.9 µM
same,TGI,HCC-2998 colon,30.7 µM
same,TGI,ACHN renal,35.7 µM
same,TGI,BT-549 breast,35.2 µM
same,TGI,SK-MEL-2 melanoma,40.2 µM
same,TGI,UO-31 renal,38.4 µM
same,TGI,MDA-N,44.4 µM
same,TGI,SF-268 CNS,30 µM
same,TGI,MDA-MB-435,37 µM
same,TGI,KM12 colon,37.1 µM
same,TGI,CAKI-1 renal,34.6 µM
same,TGI,HOP-62 NSCLC,35.8 µM
same,TGI,K-562 leukemia,> 100 µM
same,TGI,MDA-MB-231 breast,35.9 µM
same,TGI,CCRF-CEM leukemia,> 100 µM
same,TGI,OVCAR-5 ovarian,35.9 µM
same,TGI,NCI-H226 lung,33.7 µM
same,TGI,LOX IMVI melanoma,36.1 µM
O=C1NC(=O)C(c2c[nH]c3ccccc23)=C1c1cn(C(c2ccccc2)(c2ccccc2)c2ccccc2)cn1,TGI,HOP-92 NSCLC,21.9 µM
same,TGI,SW-620 colon,30 µM
same,TGI,M14 melanoma,16.3 µM
same,TGI,RPMI-8226 leukemia,10.4 µM
same,TGI,HCT-116 colon,13.1 µM
same,TGI,NCI-H23 lung,30.8 µM
same,TGI,HS 578T breast,68.2 µM
same,TGI,SK-MEL-28 melanoma,44.9 µM
same,TGI,SK-OV-3 ovarian,57 µM
same,TGI,A498 renal,18.3 µM
same,TGI,OVCAR-8 ovarian,28.2 µM
same,TGI,SR leukemia,6.78 µM
same,TGI,SF-295 CNS,19.8 µM
same,TGI,EKVX NSCLC,19.4 µM
same,TGI,MALME-3M melanoma,23.2 µM
same,TGI,SN12C renal,20.3 µM
same,TGI,UACC-257 melanoma,26.6 µM
same,TGI,HL-60(TB) leukemia,20.4 µM
same,TGI,NCI/ADR-RES ovarian,22 µM
same,TGI,UACC-62 melanoma,30.1 µM
same,TGI,OVCAR-3 ovarian,19.6 µM
same,TGI,NCI-H460 lung,14.6 µM
same,TGI,786-0 renal,22.3 µM
same,TGI,SNB-75 CNS,22.1 µM
same,TGI,NCI-H522 lung,22.9 µM
same,TGI,PC-3 prostate,7.24 µM
same,TGI,MCF7 breast,17.7 µM
same,TGI,T-47D breast,23.7 µM
same,TGI,A549 NSCLC,12.8 µM
same,TGI,SK-MEL-5 melanoma,20.8 µM
same,TGI,MOLT-4 leukemia,7.39 µM
same,TGI,HCT-15 colon,14.9 µM
same,TGI,U251 CNS,15.3 µM
same,TGI,OVCAR-4 ovarian,17.5 µM
same,TGI,RXF 393 renal,36.1 µM
same,TGI,TK-10 renal,36.5 µM
same,TGI,SNB-19 CNS,65.3 µM
same,TGI,HT29 colon,13.3 µM
same,TGI,SF-539 CNS,35.8 µM
same,TGI,COLO 205 colon,15 µM
same,TGI,DU-145 prostate,63.5 µM
same,TGI,HCC-2998 colon,16 µM
same,TGI,ACHN renal,26.6 µM
same,TGI,BT-549 breast,27.2 µM
same,TGI,SK-MEL-2 melanoma,25.6 µM
same,TGI,MDA-N,17.9 µM
same,TGI,SF-268 CNS,33.2 µM
same,TGI,MDA-MB-435,12.9 µM
same,TGI,KM12 colon,13.5 µM
same,TGI,CAKI-1 renal,> 100 µM
same,TGI,K-562 leukemia,28.7 µM
same,TGI,MDA-MB-231 breast,25.7 µM
same,TGI,CCRF-CEM leukemia,17.4 µM
same,TGI,OVCAR-5 ovarian,23.1 µM
same,TGI,NCI-H226 lung,19.9 µM
same,TGI,IGROV1 ovarian,26.2 µM
same,TGI,LOX IMVI melanoma,22.2 µM
